Assays:
BV-2 = test: Anti-neuroinflammatory activity in mouse BV-2 cells assessed as inhibition of LPS-induced NO production incubated for 48 hrs by Griess reagent based assay; format: functional, cell-based; conditions: BV-2, 48 h
[1] = Cytotoxicity against mouse BV-2 cells assessed as cell viability by MTT assay; format: cell-based; design: concentration or dose not given beside the values; conditions: read-out: Activity

| Structure (SMILES) | IC50 (BV-2) | viability [1] |
| --- | --- | --- |
| C=C(C)[C@@H]1CC[C@]2(C(=O)O)C[C@H](O)[C@]3(C)[C@H](CC[C@@H]4[C@@]5(C)CCC(=O)C(C)(C)[C@@H]5C[C@H](O)[C@]43C)[C@@H]12 | 93.7 µM | 101% |
| C=C(COO)[C@@H]1CC[C@]2(C(=O)O)CC[C@]3(C)[C@H](CC[C@@H]4[C@@]5(C)CCC(=O)C(C)(C)[C@@H]5CC[C@]43C)[C@@H]12 | 24.8 µM | 101% |
| C=C(C)[C@@H]1CC[C@]2(C(=O)O)CC[C@]3(C)[C@H](CC[C@@H]4[C@@]5(C)C[C@@H](O)C(=O)C(C)(C)[C@@H]5C[C@H](O)[C@]43C)[C@@H]12 | 64.8 µM | 106% |
| C=C(C)[C@@H]1CC[C@]2(C(=O)O)C[C@H](O)[C@]3(C)[C@H](C[C@@H](O)[C@@H]4[C@@]5(C)CCC(=O)C(C)(C)[C@@H]5CC[C@]43C)[C@@H]12 | > 100 µM | 103% |
| C=C(C)[C@@H]1CC[C@]2(C(=O)O)CC[C@]3(C)[C@H](C[C@H](O)[C@@H]4[C@@]5(C)CCC(=O)C(C)(C)[C@@H]5C[C@H](O)[C@]43C)[C@@H]12 | > 100 µM | 88.4% |
| C=C(C)[C@@H]1CC[C@]2(C(=O)O)CC[C@]3(C)[C@H](CC[C@@H]4[C@@]5(C)CCC(=O)C(C)(C)[C@@H]5CC[C@]43C)[C@@H]12 [BETUNOLIC ACID] | 60.7 µM | 102% |
| C=C(CO)[C@@H]1CC[C@]2(C(=O)O)CC[C@]3(C)[C@H](CC[C@@H]4[C@@]5(C)CCC(=O)C(C)(C)[C@@H]5CC[C@]43C)[C@@H]12 | 35.1 µM | 104% |
| C=C(C)[C@@H]1CC[C@]2(C(=O)O)CC[C@]3(C)[C@H](CC[C@@H]4[C@@]5(C)CC(=O)[C@H](O)C(C)(C)[C@@H]5C[C@H](O)[C@]43C)[C@@H]12 | > 100 µM | 97.3% |
| C=C(COC(C)=O)[C@@H]1CC[C@]2(C(=O)O)C[C@H](O)[C@]3(C)[C@H](CC[C@@H]4[C@@]5(C)CCC(=O)C(C)(C)[C@@H]5CC[C@]43C)[C@@H]12 | 76.6 µM | 101% |
| CC(=O)OC[C@@H](C)[C@@H]1CC[C@]2(C(=O)O)CC[C@]3(C)[C@H](CC[C@@H]4[C@@]5(C)CCC(=O)C(C)(C)[C@@H]5C[C@H](O)[C@]43C)[C@@H]12 | 66.3 µM | 98.8% |

Continued, in another order:

| IC50 (BV-2) | Structure (SMILES) | viability [1] |
| --- | --- | --- |
| 1.55 µM | C=C(C)[C@@H]1CC[C@]2(C(=O)O)CC[C@]3(C)[C@H](CC[C@@H]4[C@@]5(C)CCC(=O)[C@@](C)(COC(C)=O)[C@@H]5C[C@H](O)[C@]43C)[C@@H]12 | 103% |
| 21.4 µM | CNC(=N)NCCC[C@H](N)C(=O)O [TILARGININE] | 110% |
| 34.6 µM | C=C(C)[C@@H]1CC[C@]2(C(=O)O)CC[C@]3(C)[C@H](CC[C@@H]4[C@@]5(C)CCC(=O)C(C)(C)[C@@H]5C[C@H](O)[C@]43C)[C@@H]12 | 99.2% |
| 10.3 µM | C=C(C)[C@@H]1CC[C@]2(C(=O)O)CC[C@]3(C)[C@H](CC[C@@H]4[C@@]5(C)CCC(=O)C(C)(C)[C@@H]5C[C@H](OC(C)=O)[C@]43C)[C@@H]12 | 102% |
| 53.9 µM | CC(=O)[C@@H]1CC[C@]2(C(=O)O)CC[C@]3(C)[C@H](CC[C@@H]4[C@@]5(C)CCC(=O)C(C)(C)[C@@H]5C[C@H](O)[C@]43C)[C@@H]12 | 106% |
| 58.3 µM | C=C(C)[C@@H]1CC[C@]2(C(=O)O)C[C@H](O)[C@]3(C)[C@H](CC[C@@H]4[C@@]5(C)CCC(=O)[C@@](C)(CO)[C@@H]5C[C@H](O)[C@]43C)[C@@H]12 | 105% |
| 37.2 µM | C=C(C)[C@@H]1C[C@@H](O)[C@]2(C(=O)O)CC[C@]3(C)[C@H](CC[C@@H]4[C@@]5(C)CCC(=O)C(C)(C)[C@@H]5C[C@H](O)[C@]43C)[C@@H]12 | 101% |
| 42.4 µM | C=C(C)[C@@H]1CC[C@]2(C(=O)O)C[C@H](O)[C@]3(C)[C@H](CC[C@@H]4[C@@]5(C)CCC(=O)[C@@](C)(COC(C)=O)[C@@H]5CC[C@]43C)[C@@H]12 | 102% |
| 5.38 µM | C=C(COC(C)=O)[C@@H]1CC[C@]2(C(=O)O)CC[C@]3(C)[C@H](CC[C@@H]4[C@@]5(C)CCC(=O)C(C)(C)[C@@H]5C[C@H](O)[C@]43C)[C@@H]12 | 109% |
| 11.1 µM | C=C(CO)[C@@H]1CC[C@]2(C(=O)O)CC[C@]3(C)[C@H](CC[C@@H]4[C@@]5(C)CCC(=O)C(C)(C)[C@@H]5C[C@H](O)[C@]43C)[C@@H]12 | 103% |
| 61.2 µM | CC(=O)OC[C@H](C)[C@@H]1CC[C@]2(C(=O)O)CC[C@]3(C)[C@H](CC[C@@H]4[C@@]5(C)CCC(=O)C(C)(C)[C@@H]5C[C@H](O)[C@]43C)[C@@H]12 | 99.5% |
| 4.69 µM | C=C(C)[C@@H]1CC[C@]2(C(=O)O[C@@H]3O[C@H](CO)[C@@H](O)[C@H](O)[C@H]3O)CC[C@]3(C)[C@H](CC[C@@H]4[C@@]5(C)CCC(=O)C(C)(C)[C@@H]5C[C@H](O)[C@]43C)[C@@H]12 | 101% |
| 15.6 µM | C=C(C)[C@@H]1CC[C@]2(C(=O)O)CC[C@]3(C)[C@H](CC[C@@H]4[C@@]5(C)CCC(=O)[C@@](C)(CO)[C@@H]5C[C@H](O)[C@]43C)[C@@H]12 | 110% |
